Source: patent US20100286150A1, “LEVOSIMENDAN FOR USE IN TREATING CHRONIC VALVULAR DISEASE” (priority 2008, published 2010)

System: dogs diagnosed with chronic valvular disease (CVD)
Assay: Double-blind placebo-controlled study of long-term efficacy, safety and survival in dogs with chronic valvular disease
Assay type: in vivo
Conditions: for Owner-reported symptom score (mean ± SD): score 0 (best) to 18 (worst), 0.05 mg/kg orally twice a day
Description: A double-blind placebo-controlled study was conducted for evaluating the long-term efficacy and safety of levosimendan and its effect on long-term survival in dogs diagnosed with chronic valvular disease (CVD). Dogs were randomised to receive either 0.05 mg/kg of levosimendan (n=40) or placebo (n=40) orally twice a day for 5 months. All dogs were allowed to receive their background therapy (ACE-inhibitors, diuretics, beta-blockers and/or digoxin). Quality of life, symptoms of CVD, safety and mortality assessment were conducted throughout the study.
Improvement in quality of life was determined by using a composite owner-reported symptom score (ORSS). ORSS is a composite variable that was calculated by summing scores for appetite, intolerance to exercise, daytime cough, nocturnal cough, and nocturnal restlessness. The owner-reported symptom score could range from 0 (best possible) to 18 (worst possible).

[1] = 0.05 mg/kg orally twice a day for 5 months, added to standard therapy, vs placebo, FIG. 1

SMILES: C[C@@H]1CC(=O)NN=C1c1ccc(NN=C(C#N)C#N)cc1 [levosimendan, (−)-enantiomer of [[4-(1,4,5,6-tetrahydro-4-methyl-6-oxo-3-pyridazinyl)phenyl]hydrazono]propanedinitrile]
- safety (0.05 mg/kg orally twice a day for 5 months in dogs with CVD): No significant safety concerns
- mortality [1]: significantly reduced mortality
- survival [1]: prolonged survival
- quality of life over time compared to baseline assessments (0 months) (owner-reported symptom score, 0.05 mg/kg orally twice a day for 5 months): significantly improved
- Owner-reported symptom score (mean ± SD) (time 0 months (baseline)): 5.6 ± 2.4
- Owner-reported symptom score (mean ± SD) (time 1 month): 4.1 ± 3.2
- Owner-reported symptom score (mean ± SD) (time 3 months): 4.4 ± 4.1
- Owner-reported symptom score (mean ± SD) (time 5 months): 4.4 ± 3.4
